Key:
[1] = test system: IPSCs in CA1 pyramidal neurons; experiment: Check that IPSCs in dual whole-cell recordings are monosynaptic (onset latency); type: cell-based, mice; conditions: NBQX and (R)-CPP added together in the bath
Method: For electrical stimulation experiments, electrical current was delivered via theta glass stimulation electrode placed in the center of stratum pyramidale or stratum radiatum within 150-200 μm of the recorded neuron pair. The stimulus strength was the minimum required to generate small but reliable currents in both neurons. IPSCs were pharmacologically isolated via the addition of 10 μM NBQX (TOCRIS 1044) and 10 μM (R)-CPP (TOCRIS 0247) to the ACSF perfusion.
For the paired interneuron-to-CA1 pyramidal neuron recordings, the monosynaptic nature of the IPSCs was confirmed based on the expected onset latency of 1-3 ms in slice.

[2] = test system: PV-IPSCs in CA1 PCs; experiment: shRNA-mediated gene knockdown, dual whole-cell recordings of light-evoked PV-IPSCs; type: in vivo; conditions: Dlx5/6Flp; PVCre mice treated with KA for 24 h
Text: To identify molecular effector(s) of bidirectional perisomatic inhibitory plasticity downstream of Fos activation, short hairpin RNA (shRNA)-mediated gene knockdown was used to determine if any of the six candidate genes mediate the activity-dependent strengthening of PV-mediated inhibition. After verifying the efficiency of knockdown in neurons (see e.g., FIG. 13B) and the absence of adverse effects on overall neuronal viability, individual shRNAs were cloned into a Flp-OFF AAV, allowing payload inactivation by Flp recombinase and the exclusion of shRNA expression in GABAergic INs when using Dlx5/6^Flp mice (see e.g., FIG. 4A, FIG. 4B, FIG. 13C, FIG. 8A).
Following sparse transduction of neurons, PV-IPSCs was simultaneously measured in neighboring pairs of shRNA-positive (mCherry^+) and shRNA-negative (mCherry^−) PCs by photostimulating PV-specific ChR2-expressing boutons in Dlx5/6^Flp; PV^Cre mice that had been treated with KA for 24 h (see e.g., FIG. 4B). […] Similar results were observed following more the physiological condition of NE exposure (see e.g., FIG. 4E, FIG. 13F), indicating a prominent role for CA1 PC-derived Scg2 in the long-term regulation of PV-mediated inhibition.
Viral vectors and titers. All AAVs used were prepared in a Hospital Viral Core and were of serotype AAV2/1. For sparse transductions, viruses were injected at 1×10^8 genome copies per hippocampal hemisphere. For dense transductions, viruses were injected at 2×10^9 genome copies (gc) per hippocampal hemisphere. The viral vectors and original titers were as follows: pAAV-EF1a-DIO-hChR2(H134R)-EYFP (ADDGENE 20298, 1.75×10^13 gc/mL), pAAV-EF1a-fDIO-hChR2(H134R)-EYFP (ADDGENE 55639, 1.39×10^13 gc/mL), pAAV-hSyn-Con/Fon-hChR2-EYFP (ADDGENE 55645, […]), pAAV-pRAM-tTA::TRE-NLS-mKate2-WPREpA (ADDGENE 84474, 2.25×10^13 gc/mL), pAAV-CAG-Cre-GFP (OHIO STATE UNIVERSITY, 1.75×10^13 gc/mL), pAAV-CAG-Cre-mCherry (described herein, 9.10×10^12 gc/mL), pAAV-CAG-Cre-mTagBFP2 (described herein, 2.97×10^12 gc/mL), pAAV-CAG-deltaCre-GFP (described herein, 2.79×10^12 gc/mL), pAAV-FlpOFF-u6-shRNA-CAG-mCherry (described herein): Scrambled control shRNA (SEQ ID NO: 13, ACTTACGCTGAGTACTTCG) (5.08×10^13 gc/mL), Inhba (SEQ ID NO: 14, […]) (4.62×10^13 gc/mL), Bdnf (SEQ ID NO: 15, […]) (6.97×10^13 gc/mL), Pcsk1 (SEQ ID NO: 16, […]) (6.02×10^12 gc/mL), Nptx2 (SEQ ID NO: 17, […]) (1.30×10^12 gc/mL), Scg2#1 (SEQ ID NO: 18, […]) (8.11×10^11 gc/mL), Scg2#2 (SEQ ID NO: 19, […]) (2.75×10^13 gc/mL), Rgs2 (SEQ ID NO: 20, […]) (6.14×10^12 gc/mL), pAAV-CaMKIIa-mCherry (described herein, 3.80×1012 gc/mL), pAAV-CaMKIIa-hM3DGq-T2A-mCherry (described herein, 1.20×10^12 gc/mL), pAAV-hSyn-FlpOFF-Kir2.1-T2A-mCherry (described herein, 2.26×10^12 gc/mL), pAAV-hSyn-FlpOFF-Kir.2.1(Mutant)-T2A-mCherry (described herein, 1.28×10^12 gc/mL; see e.g., Xue et al. (2014), supra), pAAV-u6(Frt)-shRNA#31-CAG-Scg2-rescue (shRNA-resistant)-1×HA-T2A-mCherry-Frt-SV40 (described herein, 1.88×10^12 gc/mL), pAAV-CAG-DIO-Scg2(WT)-3×HA-bGH polyA (described herein, 8.22×10^13 gc/mL), pAAV-CAG-DIO-Scg2(9AA Mutant)-3×HA-bGH polyA (described herein, 6.13×10^13 gc/mL), pAAV-CAG-Frt-Scg2(WT)-1×HA-T2A-mCherry-Frt-bGH polyA (described herein, 1.08×10^13 gc/mL), and pAAV-CAG-Scg2(9AA Mutant)-1×HA-T2A-mCherry-Frt-bGH polyA (described herein, 3.71×10^12 gc/mL).
Ex vivo electrophysiology.

[3] = test system: PV-IPSCs in CA1 PCs; experiment: Scg2 rescue and overexpression, dual whole-cell recordings of PV-IPSCs; type: in vivo, mice
Text: These findings were further corroborated through a series of rescue and overexpression experiments. […] In addition, amplitudes of light-evoked PV-IPSCs or CCK-IPSC were compared in Scg2-overexpressing (Scg2-OE) and neighboring control (Scg2-WT) neurons; gain-of-function of Scg2 was sufficient to strengthen PV-mediated inhibition and weaken CCK-mediated inhibition, respectively, in the absence of neural activity (see e.g., FIG. 5J, FIG. 15E, FIG. 15F).
Cleavage of the Scg2 precursor gives rise to multiple neuropeptides with distinct functions (see e.g., FIG. 4F). Given that Scg2 cleavage is directed by a series of internal dibasic residues, a cleavage-resistant form of Scg2 was generated in which the nine dibasic sequences were mutated to alanine (9AA-Mut).
Viral vectors and titers. All AAVs used were prepared in a Hospital Viral Core and were of serotype AAV2/1. For sparse transductions, viruses were injected at 1×10^8 genome copies per hippocampal hemisphere. For dense transductions, viruses were injected at 2×10^9 genome copies (gc) per hippocampal hemisphere. […]

[4] = test system: CCK-IPSCs in CA1 PCs; experiment: Scg2 rescue and overexpression, dual whole-cell recordings of CCK-IPSCs; type: in vivo, mice
[5] = exogenous expression in shRNA-mediated knockdown or Scg2fl/fl knockout conditions
[6] = overexpression in the absence of neural activity

NS(=O)(=O)c1cccc2c1c([N+](=O)[O-])cc1nc(O)c(O)nc12 [NBQX, 2,3-dihydroxy-6-nitro-7-sulphamoyl-benzo(F)quinoxaline]
onset latency of the IPSCs [1]: did not alter

shRNA Rgs2: shRNA in pAAV-FlpOFF-u6-shRNA-CAG-mCherry, SEQ ID NO: 20, GCTCCCAAAGAGATAAACAT
amplitudes of PV-IPSC in shRNA-positive versus neighboring shRNA-negative PCs [2]: no effects

O=C(O)[C@H]1CN(CCCP(=O)(O)O)CCN1 [(R)-CPP, 3-((R)-2-Carboxypiperazin-4-yl)-propyl-1-phosphonic acid]
onset latency of the IPSCs [1]: did not alter

shRNA Pcsk1: shRNA in pAAV-FlpOFF-u6-shRNA-CAG-mCherry, SEQ ID NO: 16, GATAATGATCATGATCCATT
amplitudes of PV-IPSC in shRNA-positive versus neighboring shRNA-negative PCs [2]: no effects

shRNA Inhba: shRNA in pAAV-FlpOFF-u6-shRNA-CAG-mCherry, SEQ ID NO: 14, CCTTCCACTCAACAGTCATT
amplitudes of PV-IPSC in shRNA-positive versus neighboring shRNA-negative PCs [2]: no effects

shRNA Bdnf: shRNA in pAAV-FlpOFF-u6-shRNA-CAG-mCherry, SEQ ID NO: 15, GAATTGGCTGGCGATTCATA
amplitudes of PV-IPSC in shRNA-positive versus neighboring shRNA-negative PCs [2]: slight decrease

shRNA Nptx2: shRNA in pAAV-FlpOFF-u6-shRNA-CAG-mCherry, SEQ ID NO: 17, GAAGACATTGCCTGAGCTGT
amplitudes of PV-IPSC in shRNA-positive versus neighboring shRNA-negative PCs [2]: no effects

B1: Scg2: wildtype full-length Scg2 (secretogranin II) precursor protein exogenously expressed from AAV in CA1 pyramidal cells (protein, UniProt Q03517 1-617, looked up)
chain: MAGAKAYRLGAVLLLIHLIFLISGAEAASFQRNQLLQKEPDLRLENVQKFPSPEMIRALEYIEKLRQQAHREESSPDYNPYQGVSVPLQLKENGEESHLAESSRDALSEDEWMRIILEALRQAENEPPSAPKENKPYALNLEKNFPVDTPDDYETQQWPERKLKHMRFPLMYEENSRENPFKRTNEIVEEQYTPQSLATLESVFQELGKLTGPSNQKRERVDEEQKLYTDDEDDVYKTNNIAYEDVVGGEDWSPIEEKIETQTQEEVRDSKENTEKNEQINEEMKRSGQLGLPDEENRRESKDQLSEDASKVITYLRRLVNAVGSGRSQSGPNGDRAARLLQKPLDSQSIYQLIEISRNLQIPPEDLIEMLKAGEKPNGLVEPEQDLELAVDLDDIPEADLDRPDMFQSKMLSKGGYPKAPGRGMVEALPDGLSVEDILNVLGMENVVNQKSPYFPNQYSQDKALMRLPYGPGKSRANQIPKVAWIPDVESRQAPYENLNDQELGEYLARMLVKYPELLNTNQLKRVPSPVSSEDDLQEEEQLEQAIKEHLGPGSSQEMERLAKVSKRIPVGSLKNEDTPNRQYLDEDMLLKVLEYLNQEQAEQGREHLAKRAMENM
modifications: full-length
notes: wildtype full-length Scg2 (secretogranin II) precursor protein exogenously expressed from AAV in CA1 pyramidal cells
PV-mediated inhibition, rescue of loss of Scg2 [3, 5]: restored to control levels
PV-mediated inhibition, overexpressing versus neighboring control neurons [3, 6]: strengthen
CCK-mediated inhibition, rescue of loss of Scg2 [4, 5]: restored to control levels
CCK-mediated inhibition, overexpressing versus neighboring control neurons [4, 6]: weaken

Reference: patent publication US20240034765A1, “SCG2 NEUROPEPTIDES AND USES THEREOF” (PRESIDENT AND FELLOWS OF HARVARD COLLEGE, priority 2020, published 2024)
